Data published in patent publication US11046680B1, “Heteroaryl-substituted triazoles as APJ receptor agonists” (priority 2016, dated 2021).

Target: human APJ receptor (Homo sapiens (Human), UniProt P35414)
Assay: biochemical
Type: biochemical
Conditions: [35S]GTPγS binding, CHO membranes expressing human APJ receptor; read-out: Activity hAPJ SPA EC50 IP
In short: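 Membranes of a stable CHO line carrying human APJ (pFLAG-CMV-3) were used in a GTPγS binding format; buffer GDP, MgCl2 and NaCl were optimized, and plates were read after 90 min at RT.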

Chain of human APJ receptor (P35414 whole entry): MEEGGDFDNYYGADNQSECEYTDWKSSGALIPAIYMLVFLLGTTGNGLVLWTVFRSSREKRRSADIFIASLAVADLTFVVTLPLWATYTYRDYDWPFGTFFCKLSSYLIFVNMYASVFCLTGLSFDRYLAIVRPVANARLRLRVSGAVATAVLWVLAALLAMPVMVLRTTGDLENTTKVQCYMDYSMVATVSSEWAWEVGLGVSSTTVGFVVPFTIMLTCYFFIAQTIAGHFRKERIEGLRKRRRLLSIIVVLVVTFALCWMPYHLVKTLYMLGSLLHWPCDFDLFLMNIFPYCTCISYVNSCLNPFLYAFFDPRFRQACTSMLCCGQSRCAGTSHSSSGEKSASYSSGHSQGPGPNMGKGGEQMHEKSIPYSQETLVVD

Compound | EC50
COc1cccc(OC)c1-n1c(NS(=O)(=O)[C@@H](C)[C@H](O)c2ncc(C)cn2)nnc1-c1cc2n(n1)CCC2 [Example 220.0, (1R,2S)-N-(5-(5,6-dihydro-4H-pyrrolo[1,2-b]pyrazol-2-yl)-4-(2,6-dimethoxyphenyl)-4H-1,2,4-triazol-3-yl)-1-hydroxy-1-(5-methyl-2-pyrimidinyl)-2-propanesulfonamide] | 6.6 nM
COc1cccc(OC)c1-n1c(NS(=O)(=O)[C@@H](C)[C@H](OC)c2ncc(C)cn2)nnc1-c1ccon1 [Example 90.0, (1R,2S)-N-(4-(2,6-dimethoxyphenyl)-5-(isoxazol-3-yl)-4H-1,2,4-triazol-3-yl)-1-methoxy-1-(5-methylpyrimidin-2-yl)propane-2-sulfonamide] | 33 nM
COc1ccccc1-n1c(NS(=O)(=O)CCc2ccc(F)cc2)nnc1-c1cccs1 [Example 359.0, 2-(4-Fluorophenyl)-N-(4-(2-methoxyphenyl)-5-(thiophen-2-yl)-4H-1,2,4-triazol-3-yl)ethanesulfonamide] | 143 nM
COc1ccccc1-n1c(NS(=O)(=O)CCC(F)(F)F)nnc1-c1cccs1 [Example 386.0, 3,3,3-Trifluoro-N-(4-(2-methoxyphenyl)-5-(2-thiophenyl)-4H-1,2,4-triazol-3-yl)-1-propanesulfonamide] | > 12500 nM
COc1cccc(OC)c1-n1c(NS(=O)(=O)[C@@H](C)[C@@H](C)c2ncc(F)cn2)nnc1-c1nc(C)cs1 (single isomer, unassigned) [Example 119.0] | 4.6 nM
COc1cccc(OC)c1-n1c(NS(=O)(=O)[C@@H](C)[C@H](OC)c2cnc(C)cn2)nnc1-c1ccn(C(F)F)n1 [Example 223.0, (1R,2S)-N-(5-(1-(difluoromethyl)-1H-pyrazol-3-yl)-4-(2,6-dimethoxyphenyl)-4H-1,2,4-triazol-3-yl)-1-methoxy-1-(5-methyl-2-pyrazinyl)-2-propanesulfonamide] | 2.9 nM
COc1cccc(OC)c1-n1c(NS(=O)(=O)CCc2ccc(Cl)cc2)nnc1-c1ccsc1 [Example 141.0, 2-(4-chlorophenyl)-N-(4-(2,6-dimethoxyphenyl)-5-(thiophen-3-yl)-4H-1,2,4-triazol-3-yl)ethanesulfonamide] | 9.4 nM
CCn1ccc(-c2nnc(NS(=O)(=O)[C@@H](C)[C@H](C)c3ncc(C)cn3)n2-c2c(OC)cccc2OC)n1 [Example 389.0, (2S,3R)-N-(4-(2,6-Dimethoxyphenyl)-5-(1-ethyl-1H-pyrazol-3-yl)-4H-1,2,4-triazol-3-yl)-3-(5-methylpyrimidin-2-yl)butane-2-sulfonamide] | 0.34 nM
CCc1nc(-c2nnc(NS(=O)(=O)CCc3ncc(F)cn3)n2-c2c(OC)cccc2OC)cs1 [Example 99.0, N-(4-(2,6-dimethoxyphenyl)-5-(2-ethylthiazol-4-yl)-4H-1,2,4-triazol-3-yl)-2-(5-fluoropyrimidin-2-yl)ethanesulfonamide] | 13 nM
COc1ccc(S(C)(=O)=O)cc1-n1c(NS(=O)(=O)CCc2ccc(F)cc2)nnc1-c1cccs1 [Example 358.0, 2-(4-Fluorophenyl)-N-(4-(2-methoxy-5-(methylsulfonyl)phenyl)-5-(thiophen-2-yl)-4H-1,2,4-triazol-3-yl)ethanesulfonamide] | 34 nM
COc1cccc(OC)c1-n1c(NS(=O)(=O)[C@@H](C)[C@H](C)c2ncc(Cl)cn2)nnc1-c1cc(C)on1 [Example 498.0, (2S,3R)-3-(5-chloropyrimidin-2-yl)-N-(4-(2,6-dimethoxyphenyl)-5-(5-methylisoxazol-3-yl)-4H-1,2,4-triazol-3-yl)butane-2-sulfonamide] | 0.44 nM
COc1cccc(OC)c1-n1c(NS(=O)(=O)[C@H](C)Cc2ncc(F)cn2)nnc1-c1cc(C)no1 (single isomer, unassigned) [Example 63.0, (R)-N-(4-(2,6-dimethoxyphenyl)-5-(3-methylisoxazol-5-yl)-4H-1,2,4-triazol-3-yl)-1-(5-fluoropyrimidin-2-yl)propane-2-sulfonamide or (R)-N-(4-(2,6-dimethoxyphenyl)-5-(3-methylisoxazol-5-yl)-4H-1,2,4-triazol-3-yl)-1-(5-fluoropyrimidin-2-yl)propane-2-sulfonamide] | 85 nM
COc1cccc(OC)c1-n1c(NS(=O)(=O)[C@H](C)Cc2ncc(F)cn2)nnc1-c1nc(C)cs1 [Example 103.0] | 8.4 nM
COc1cccc(OC)c1-n1c(NS(=O)(=O)[C@@H](C)[C@H](O)c2ncc(C)cn2)nnc1-c1cc(C)n[nH]1 [Example 349.0, (1R,2S)-N-(4-(2,6-Dimethoxyphenyl)-5-(3-methyl-1H-pyrazol-5-yl)-4H-1,2,4-triazol-3-yl)-1-hydroxy-1-(5-methylpyrimidin-2-yl)propane-2-sulfonamide] | 2.1 nM
C=CCO[C@@H](c1ncc(F)cn1)[C@@H](C)S(=O)(=O)Nc1nnc(-c2nc(C)cs2)n1-c1c(OC)cccc1OC (single isomer, unassigned) [Example 169.0, (1S,2R)-1-(Allyloxy)-N-(4-(2,6-dimethoxyphenyl)-5-(4-methylthiazol-2-yl)-4H-1,2,4-triazol-3-yl)-1-(5-fluoropyrimidin-2-yl)propane-2-sulfonamide or (1R,2S)-1-(allyloxy)-N-(4-(2,6-dimethoxyphenyl)-5-(4-methylthiazol-2-yl)-4H-1,2,4-triazol-3-yl)-1-(5-fluoropyrimidin-2-yl)propane-2-sulfonamide] | 0.46 nM
COc1ncnc(OC)c1-n1c(NS(=O)(=O)[C@@H](C)[C@H](C)c2ncc(Cl)cn2)nnc1-c1cnn2ccccc12 [Example 440.0, (2S,3R)-3-(5-chloropyrimidin-2-yl)-N-(4-(4,6-dimethoxypyrimidin-5-yl)-5-(pyrazolo[1,5-a]pyridin-3-yl)-4H-1,2,4-triazol-3-yl)butane-2-sulfonamide] | 0.96 nM
COc1cccc(OC)c1-n1c(NS(=O)(=O)C[C@H](OC)c2ccc(F)cc2S(C)(=O)=O)nnc1-c1ccn(C)n1 (single isomer, unassigned) [Example 373.0, (R)-N-(4-(2,6-Dimethoxyphenyl)-5-(1-methyl-1H-pyrazol-3-yl)-4H-1,2,4-triazol-3-yl)-2-(4-fluoro-2-(methylsulfonyl)phenyl)-2-methoxyethanesulfonamide or (S)-N-(4-(2,6-dimethoxyphenyl)-5-(1-methyl-1H-pyrazol-3-yl)-4H-1,2,4-triazol-3-yl)-2-(4-fluoro-2-(methylsulfonyl)phenyl)-2-methoxyethanesulfonamide] | 1.3 nM
CO[C@H](c1ncc(Cl)cn1)[C@H](C)S(=O)(=O)Nc1nnc(-c2noc3ccccc23)n1C1CC1 [Example 506.0, (1R,2S)-N-(5-(benzo[d]isoxazol-3-yl)-4-cyclopropyl-4H-1,2,4-triazol-3-yl)-1-(5-chloropyrimidin-2-yl)-1-methoxypropane-2-sulfonamide] | 260 nM
CO[C@H](c1ncc(Cl)cn1)[C@H](C)S(=O)(=O)Nc1nnc(-c2nn(C)c3c2CCCC3)n1C1CC1 [Example 514.0, (1R,2S)-1-(5-chloropyrimidin-2-yl)-N-(4-cyclopropyl-5-(1-methyl-4,5,6,7-tetrahydro-1H-indazol-3-yl)-4H-1,2,4-triazol-3-yl)-1-methoxypropane-2-sulfonamide] | 19 nM
COc1cccc(OC)c1-n1c(NS(=O)(=O)C[C@H](O)c2ccc(Cl)cc2)nnc1-c1ccn(C)n1 (single isomer, unassigned) [Example 375.0, (R)-2-(4-Chlorophenyl)-N-(4-(2,6-dimethoxyphenyl)-5-(1-methyl-1H-pyrazol-3-yl)-4H-1,2,4-triazol-3-yl)-2-hydroxyethanesulfonamide or (R)-2-(4-chlorophenyl)-N-(4-(2,6-dimethoxyphenyl)-5-(1-methyl-1H-pyrazol-3-yl)-4H-1,2,4-triazol-3-yl)-2-hydroxyethanesulfonamide] | 5.9 nM
COc1cccc(OC)c1-n1c(NS(=O)(=O)[C@@H](C)[C@H](OC)c2ncc(C)cn2)nnc1-c1cnn2c1CCC2 [Example 444.0, (1R,2S)-N-(5-(5,6-dihydro-4H-pyrrolo[1,2-b]pyrazol-3-yl)-4-(2,6-dimethoxyphenyl)-4H-1,2,4-triazol-3-yl)-1-methoxy-1-(5-methylpyrimidin-2-yl)propane-2-sulfonamide] | 1.2 nM
COCC1(n2c(NS(=O)(=O)[C@@H](C)[C@H](OC)c3ncc(Cl)cn3)nnc2-c2cnn3ccccc23)CCC1 [Example 508.0] | 62 nM
COc1ccc(N2CCC2=O)cc1-n1c(NS(=O)(=O)CCc2ccc(F)cc2)nnc1-c1cccs1 [Example 130.0, 2-(4-Fluorophenyl)-N-(4-(2-methoxy-5-(2-oxo-1-azetidinyl)phenyl)-5-(2-thiophenyl)-4H-1,2,4-triazol-3-yl)ethanesulfonamide] | 3.5 nM
COc1cccc(OC)c1-n1c(NS(=O)(=O)[C@@H](C)[C@H](OC)c2ncc(Cl)cn2)nnc1-c1cc(C)on1 [Example 496.0, (1R,2S)-1-(5-chloropyrimidin-2-yl)-N-(4-(2,6-dimethoxyphenyl)-5-(5-methylisoxazol-3-yl)-4H-1,2,4-triazol-3-yl)-1-methoxypropane-2-sulfonamide] | 0.62 nM
COc1ccccc1-n1c(NS(=O)(=O)[C@@H](C)[C@H](C)c2ncc(F)cn2)nnc1-c1ccn(C)n1 [Example 269.0, (2S,3R)-3-(5-fluoro-2-pyrimidinyl)-N-(4-(2-methoxyphenyl)-5-(1-methyl-1H-pyrazol-3-yl)-4H-1,2,4-triazol-3-yl)-2-butanesulfonamide] | 8.7 nM
COCC1(n2c(NS(=O)(=O)[C@@H](C)[C@H](OC)c3ncc(Cl)cn3)nnc2-c2nn(C)c3c2CCCC3)CCC1 [Example 518.0] | 92 nM
COc1cnc([C@H](C)[C@@H](C)S(=O)(=O)Nc2nnc(-c3ccn(C)n3)n2-c2c(OC)cccc2OC)nc1 [Example 457.0, (2R,3S)-N-(4-(2,6-dimethoxyphenyl)-5-(1-methyl-1H-pyrazol-3-yl)-4H-1,2,4-triazol-3-yl)-3-(5-methoxy-2-pyrimidinyl)-2-butanesulfonamide] | 25 nM
